Measured values from patent publication EP1175901A1, “PEROXISOME ACTIVATOR-RESPONSIVE RECEPTOR AGONISTS” (Kaneka Corporation, priority 1999, dated 2000).
Marks after values point to notes of the source that are not given here.

What was measured:
[1] = test system: mice; experiment: Preliminary tests of CLA added to feed (liver enlargement, food intake); assay type: in vivo; conditions: 1wt% or more of CLA added to the feed
[2] = test system: C57BL/6J mice; experiment: Lipid metabolism amelioration: plasma lipid concentrations in obese mice (Example 4); assay type: in vivo; conditions: after 16 hours without feed, 3 weeks test feed, 7wt% test oil (CLA 0.5wt%), soybean oil group = 100
Source text: 10-week old female C57BL/6J mice (from Clea Japan) were made obese by keeping for 3 weeks on a high-fat, high-sugar feed (made by Oriental Yeast) having the composition shown in Table 4. The mice were then divided into groups of 8, and were kept for a further 3 weeks on a test feed consisting of a fat-free growth-period-use standard mixed feed (AIN-93G, made by Oriental Yeast) with 2wt% soybean oil as an essential fatty acid source and either 7wt% of a test oil or 7wt% of a control oil added. After 3 weeks, the mice were fed for the last time and then not fed for 16 hours, after which the whole blood was collected from the mice using a heparinized syringe under ether anesthesia, and then the mice were dissected, with the adipose tissue around the kidneys, the adipose tissue around the ovaries, the liver, the kidneys and the spleen being extracted, and the weights thereof being measured. Each organ weight thus obtained was divided by the body weight to obtain the ratio of the organ weight to the body weight. The adipose tissue around the kidneys and the adipose tissue around the ovaries was evaluated as visceral adipose tissue. The collected blood was centrifuged for 15 minutes at 3000 rpm while cooling to obtain the plasma, and then the total cholesterol concentration was measured using Cholesterol C Test Wako (made by Wako Pure Chemical Industries), the neutral lipid concentration using Triglyceride G Test Wako (made by Wako Pure Chemical Industries), and the free fatty acid concentration using NEFA C Test Wako (made by Wako Pure Chemical Industries). The groups set up were a test group for which pomegranate seed oil prepared as in Example 1 was added to the feed (pomegranate seed oil group), a control group for which soybean oil was added to the feed (soybean oil group), and a comparative group for which high-DHA-containing fish oil (DHA content 20wt%, made by Harima Chemicals), which is known to have obesity ameliorating effects, was added to the feed (fish oil group). […]

[3] = biological target: T1, PPARγ (Homo sapiens, UniProt P37231); experiment: PPARγ agonist activity, GAL4-PPARγ chimera / 4×UASg-luc luciferase reporter assay in CV-1 cells; conditions: for Relative activity (n=3): untreated control = 100
T1 sequence (P37231 204-505): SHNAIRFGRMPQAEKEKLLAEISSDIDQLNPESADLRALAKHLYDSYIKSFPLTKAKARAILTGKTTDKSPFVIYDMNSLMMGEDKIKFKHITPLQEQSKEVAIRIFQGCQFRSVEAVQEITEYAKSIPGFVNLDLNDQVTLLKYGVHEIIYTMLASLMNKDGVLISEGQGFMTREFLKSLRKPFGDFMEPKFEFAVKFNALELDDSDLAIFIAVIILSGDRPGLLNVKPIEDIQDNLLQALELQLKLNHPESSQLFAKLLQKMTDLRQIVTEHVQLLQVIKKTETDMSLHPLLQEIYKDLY
Description: Moreover, untreated control groups were established by exchanging with a culture medium prepared by diluting only DMSO with DMEM containing 10% activated-charcoal-treated bovine fetal serum. […] One day after the culture medium exchange, the culture medium was removed, the cells were washed with phosphate buffered saline (PBS), a cell solution was prepared using PicaGene cell solution Luc (made by Toyo Ink), 20µl of the cell solution was reacted with 100µl of a PicaGene luminescent substrate (made by Toyo Ink), and the luciferase activity was measured using a luminometer (Berthold Lumat LB9501) with the measurement time set to 10 seconds.
Letting the ratio of the measurement group (the group for which pM-PPAR and 4×UASg-luc were transfected) to the control group (the group for which pM and 4×UASg-luc were transfected) in the case of the untreated control groups be (a), and the ratio of the measurement group to the control group in the case of the ligand-reagent-added groups be (b), the PPARγ agonist activity caused by the ligand reagent was evaluated using the ratio (b)/(a). To avoid errors due to differences in the transfection efficiency between experiments, TZD (1µm) was put in as positive control groups and the values between the experiments were corrected.

[4] = test system: C57BL/6J mice; experiment: Visceral fat reduction: tissue weights in mice made obese on high-fat, high-sugar feed (Example 4); assay type: in vivo; conditions: obese female C57BL/6J mice, 3 weeks test feed, 7wt% test oil (CLA group: 0.5wt% CLA + 6.5wt% soybean oil)
Description: The visceral fat reduction effects or visceral fat accumulation suppression effects of the PPAR agonist and oil/fat composition of the present invention are evaluated by administering the candidate compound to a laboratory animal for a specific time period (e.g. 4 weeks), and then measuring the amount of visceral fat in the adipose tissue around the testes, the adipose tissue around the kidneys and the like.
10-week old female C57BL/6J mice (from Clea Japan) were made obese by keeping for 3 weeks on a high-fat, high-sugar feed (made by Oriental Yeast) having the composition shown in Table 4. The mice were then divided into groups of 8, and were kept for a further 3 weeks on a test feed consisting of a fat-free growth-period-use standard mixed feed (AIN-93G, made by Oriental Yeast) with 2wt% soybean oil as an essential fatty acid source and either 7wt% of a test oil or 7wt% of a control oil added. After 3 weeks, the mice were fed for the last time and then not fed for 16 hours, after which the whole blood was collected from the mice using a heparinized syringe under ether anesthesia, and then the mice were dissected, with the adipose tissue around the kidneys, the adipose tissue around the ovaries, the liver, the kidneys and the spleen being extracted, and the weights thereof being measured. Each organ weight thus obtained was divided by the body weight to obtain the ratio of the organ weight to the body weight. The adipose tissue around the kidneys and the adipose tissue around the ovaries was evaluated as visceral adipose tissue. The collected blood was centrifuged for 15 minutes at 3000 rpm while cooling to obtain the plasma, and then the total cholesterol concentration was measured using Cholesterol C Test Wako (made by Wako Pure Chemical Industries), the neutral lipid concentration using Triglyceride G Test Wako (made by Wako Pure Chemical Industries), and the free fatty acid concentration using NEFA C Test Wako (made by Wako Pure Chemical Industries). The groups set up were a test group for which pomegranate seed oil prepared as in Example 1 was added to the feed (pomegranate seed oil group), a control group for which soybean oil was added to the feed (soybean oil group), and a comparative group for which high-DHA-containing fish oil (DHA content 20wt%, made by Harima Chemicals), which is known to have obesity ameliorating effects, was added to the feed (fish oil group). Also set up was a group for which 6.5wt% of soybean oil and 0.5wt% of CLA (made by Kenko Tsusho, 70% purity) was added to the feed (CLA group). […] Moreover, also set up was a group that were fed a standard feed containing 9wt% of soybean oil throughout the test period right from the start (standard feed group, n=3). During the test period, the mice were allowed to drink water freely, but feeding was limited such that the intake was the same as for the soybean oil group.

food intake [1]: drop in the mice's food intake | liver enlargement [1]: 1.4 times relative to a control | Relative activity (mean, n=3) ([3]; 20µM final fatty acid concentration, untreated control group = 100): 125 | Relative activity (n=3) ([3]; concentration 3 (µm [sic]), 3 µM): 129 | Relative activity (n=3) ([3]; concentration 9 (µm [sic]), 9 µM): 109 | Relative activity (n=3) ([3]; concentration 30 (µm [sic]), 30 µM): 110 | Relative activity (n=3) ([3]; concentration 90 (µm [sic]), 90 µM): 159 | Relative activity (n=3) ([3]; concentration 300 (µm [sic]), 300 µM): 323
Substance: conjugated linoleic acid [CLA]
Relative blood lipid concentration (mean, n=8): Free fatty acids [2]: 71* % of soybean oil group | Relative blood lipid concentration (mean, n=8): Neutral lipids [2]: 100 mg/dL | Relative blood lipid concentration (mean, n=8): Total cholesterol [2]: 89 mg/dL | Ratio of tissue weight to body weight (mean, n=8): Fat around kidneys ([4]; soybean oil group 0.304): 0.240 | Ratio of tissue weight to body weight (mean, n=8): Spleen ([4]; soybean oil group 0.391): 0.450 | Ratio of tissue weight to body weight (mean, n=8): Fat around ovaries ([4]; soybean oil group 0.839): 0.650 | Ratio of tissue weight to body weight (mean, n=8): Kidneys ([4]; soybean oil group 1.128): 1.280 | Ratio of tissue weight to body weight (mean, n=8): Visceral fat ([4]; soybean oil group 1.144): 0.890 | Ratio of tissue weight to body weight (mean, n=8): Liver ([4]; soybean oil group 4.454): 4.920
